Target: T1, human TLR8 (Homo sapiens, UniProt Q9NR97)
T1 construct: host or cells: HEK-Blue-hTLR8
T1 sequence (Q9NR97 27-1041): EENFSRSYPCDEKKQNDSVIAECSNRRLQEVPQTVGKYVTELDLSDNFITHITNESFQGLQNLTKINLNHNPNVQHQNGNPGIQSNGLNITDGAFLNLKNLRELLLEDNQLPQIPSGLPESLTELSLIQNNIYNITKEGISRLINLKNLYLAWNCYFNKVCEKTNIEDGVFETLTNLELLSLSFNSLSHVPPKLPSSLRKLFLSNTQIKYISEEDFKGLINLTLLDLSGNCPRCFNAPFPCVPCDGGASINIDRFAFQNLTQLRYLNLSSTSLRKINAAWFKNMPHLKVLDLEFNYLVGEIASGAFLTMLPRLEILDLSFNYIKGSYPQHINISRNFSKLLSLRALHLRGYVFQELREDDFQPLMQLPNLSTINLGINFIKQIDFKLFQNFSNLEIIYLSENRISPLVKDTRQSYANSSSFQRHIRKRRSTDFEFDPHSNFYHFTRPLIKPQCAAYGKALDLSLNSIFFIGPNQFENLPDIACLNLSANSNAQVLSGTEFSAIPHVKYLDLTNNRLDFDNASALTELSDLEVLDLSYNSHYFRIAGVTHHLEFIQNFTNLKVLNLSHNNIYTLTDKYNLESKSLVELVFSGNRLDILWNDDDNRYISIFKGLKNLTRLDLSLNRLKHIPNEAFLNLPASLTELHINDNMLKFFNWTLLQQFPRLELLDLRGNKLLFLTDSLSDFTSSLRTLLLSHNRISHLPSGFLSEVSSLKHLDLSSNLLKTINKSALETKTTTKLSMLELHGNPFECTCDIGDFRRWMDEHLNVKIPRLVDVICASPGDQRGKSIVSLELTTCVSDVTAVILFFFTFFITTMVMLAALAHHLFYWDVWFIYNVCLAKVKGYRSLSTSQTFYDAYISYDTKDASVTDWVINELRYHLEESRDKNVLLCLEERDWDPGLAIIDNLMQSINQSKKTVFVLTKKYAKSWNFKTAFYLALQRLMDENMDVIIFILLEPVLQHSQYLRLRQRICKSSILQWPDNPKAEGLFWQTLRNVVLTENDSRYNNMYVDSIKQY
Assay: TLR8 reporter gene assay (HEK-Blue-hTLR8, NFkB/AP-1 inducible SEAP)
Format: cell-based
Description: 2) TLR Stimulation Assay:
Compounds are tested for stimulation of human TLR7 and TLR8, respectively, via reporter gene expression analyzed in a cell line stably transfected with human TLR7 and TLR8, respectively, and coexpressing an NFkB/AP-1 inducible SEAP reporter gene. Stimulation with a TLR ligand leads to NFkB/AP-1 activation and upregulation and secretion of SEAP, which can be measured in the supernatant with QuantiBlue™ detection system (InvivoGen).
Cell lines used were either HEK-Blue-hTLR7 (InvivoGen #hkb-htlr7) or HEK-Blue-hTLR8 (InvivoGen #hkb-htlr8). Cells were cultured following manufacturer's instructions. […]

- activity towards TLR8 in the TLR8 reporter gene assay: no activity
SMILES: CCc1nc2c(N)nc3ccccc3c2n1CCCCN(C(C)=O)C1CCOCC1 [Example 1, N-(4-(4-Amino-2-ethyl-1H-imidazo[4,5-c]quinolin-1-yl)butyl)-N-(tetrahydro-2H-pyran-4-yl)acetamide]
